For 22 molecules, IC50 results are on record in patent US11884627B2, “Compounds and compositions for treating conditions associated with LPA receptor activity” (Lhotse Bio, Inc., priority 2022, dated 2024).

The target in this experiment is T1, human LPA1 (Homo sapiens, UniProt Q92633).
T1 construct: expressed in transfected cells; host or cells: CHO-K1
The experiment is described as follows: In vitro LPA1 calcium flux antagonist assay - Bioduro protocol. In kind it is cell-based. As to conditions: CHO-K1 cells overexpressing human LPA1 and G15a, LPA challenge at EC80. The method in brief: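 Calcium mobilization read on FLIPR after EC80 LPA was added to compound-pretreated (30 min) CHO-K1 cells co-expressing human LPA1 and G15a. Cells were starved 4 h and dye-loaded with Fluo-8 AM/2.5 mM probenecid in HBSS-Hepes; inhibition normalized between DMSO and LPA-control RFU.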
In general terms: Calcium assays in cells follow changes in intracellular calcium, usually with a dye or a luminescent sensor.

[1] abbreviates: calcium mobilization on FLIPR Tetra, read-out: IC50.
Setting [2] is: Table B3, read-out: Activity (IC50 class).

Broadly, the IC50 is the midpoint of a concentration-inhibition curve.

Molecules are shown by their SMILES. Like-named read-outs stand apart in the source and are kept apart here.

T1 sequence (Q92633 whole entry): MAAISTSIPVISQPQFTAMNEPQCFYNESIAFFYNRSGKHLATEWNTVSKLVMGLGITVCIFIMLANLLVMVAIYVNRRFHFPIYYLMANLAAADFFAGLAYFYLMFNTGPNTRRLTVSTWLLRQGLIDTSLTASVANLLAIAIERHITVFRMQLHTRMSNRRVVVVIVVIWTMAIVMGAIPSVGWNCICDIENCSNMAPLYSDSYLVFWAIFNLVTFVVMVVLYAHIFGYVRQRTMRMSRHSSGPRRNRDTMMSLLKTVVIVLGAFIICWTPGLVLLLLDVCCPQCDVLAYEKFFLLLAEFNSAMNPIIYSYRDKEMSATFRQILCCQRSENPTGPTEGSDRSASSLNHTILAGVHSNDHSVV

As for `COc1cc(OC)c(C(F)F)c(-c2ccc(NC3(C(=O)O)CCOCC3)cc2COC2CC2)c1` [Compound 302], the IC50 reads like this: under setting [1], 85.2 nM; under setting [2], 100 to 1000 nM.

Turning to `COc1cc(OC)c(Cl)c(-c2ccc(NC3(C(=O)O)CCOCC3)cc2COC2CC2)c1` [Compound 303], the IC50 was 12.3 nM under setting [1] and < 100 nM under setting [2].

Consider `O=C(O)C1(Nc2ccc(-c3cccc(OC4CC4)c3)c(COC3CC3)c2)CCOCC1` [Compound 304], for which the IC50 under setting [1] is 5.64 nM and the IC50 under setting [2] is > 1000 nM.

Consider `O=C(O)C1(Nc2ccc(-c3cccc(CCO)c3F)c(COC3CC3)c2)CCOCC1` [Compound 305], for which the IC50 is 711 nM under setting [1] and > 1000 nM under setting [2].

On to `CCOc1cccc(-c2ccc(NC3(C(=O)O)CCOCC3)cc2COC2CC2)c1F` [Compound 306], for which the IC50 by setting is: under setting [1], 165 nM; under setting [2], 100 to 1000 nM.

Turning to `CCCOc1cccc(-c2ccc(NC3(C(=O)O)CCOCC3)cc2COC2CC2)c1F` [Compound 307], the concentration for half-maximal inhibition (IC50) by setting is: under setting [1], 58.4 nM; under setting [2], < 100 nM.

As to `COc1cc(-c2c(C)cc(NC3(C(=O)O)CCOCC3)cc2CCC2CCOC2)cc(OC)c1C` (centres unmarked) [Compound 308], the IC50 by setting is: under setting [1], 23.6 nM; under setting [2], < 100 nM.

With `COc1cc(-c2c(C)cc(NC3(C(=O)O)CCOCC3)cc2CCC2CCOC2)cc(OC)c1C` (centres unmarked) [Compound 309], the IC50 runs as follows: under setting [1], 37.7 nM; under setting [2], < 100 nM.

In the case of `COc1cc(-c2ccc(NC3(C(=O)O)CCOCC3)cc2COC2CC2)c(C(F)F)c(OC)c1C` [Compound 310], the IC50 was 6.93 nM under setting [1] and < 100 nM under setting [2].

With `COCc1cccc(-c2ccc(NC3(C(=O)O)CCOCC3)cc2COC2CC2)c1C(F)F` [Compound 311], the IC50 by setting is: under setting [1], 148 nM; under setting [2], 100 to 1000 nM.

As to `CCOc1c(C)c(OC)cc(-c2ccc(NC3(C(=O)O)CCOCC3)cc2COC2CC2)c1F` [Compound 312], the IC50 runs as follows: under setting [1], 5.44 nM; under setting [2], < 100 nM.

As to `CCOc1c(C)ccc(-c2ccc(NC3(C(=O)O)CCOCC3)cc2COC2CC2)c1C` [Compound 313], the IC50 under setting [1] was 5.93 nM and the IC50 under setting [2] was < 100 nM.

With `COc1cc(-c2ccc(NC3(C(=O)O)CCOCC3)cc2COC2CC2)c(C(F)F)c(OC)n1` [Compound 314], the IC50 is, setting by setting: under setting [1], 37 nM; under setting [2], < 100 nM.

With `CCOc1cc(OC)cc(-c2ccc(NC3(C(=O)O)CCOCC3)cc2COC2CCCC2)c1` [Compound 315], the IC50 reads like this: under setting [1], 24 nM; under setting [2], < 100 nM.

As to `CCOc1cc(OC)cc(-c2ccc(NC3(C(=O)O)CCOCC3)cc2COC2CC2)c1` [Compound 316], the IC50 is 1080 nM under setting [1] and > 1000 nM under setting [2].

As for `CCOc1cccc(-c2ccc(NC3(C(=O)O)CC3)cc2COC2CCCC2)c1C(F)F` [Compound 317], the IC50 by setting is: under setting [1], 14 nM; under setting [2], < 100 nM.

With `COc1cc(-c2ccc(NC3(C(=O)O)CCOCC3)cc2COC2CC2)c(C)c(OC)c1C` [Compound 318], the IC50 reads like this: under setting [1], 9.47 nM; under setting [2], < 100 nM.

For `COc1cc(-c2ccc(NC3(C(=O)O)CCOCC3)cc2COC2CCCC2)c(F)cc1C` [Compound 319], the IC50 under setting [1] stood at 76.7 nM and the IC50 under setting [2] is < 100 nM.

On to `COc1cc(OC)c(C(F)F)c(-c2ccc(NC3(C(=O)O)CCOCC3)cc2COC2CCCC2)c1` [Compound 320], for which the IC50 under setting [1] is 12.1 nM and the IC50 under setting [2] is < 100 nM.

On to `O=C(O)C1(Nc2ccc(-c3cccc(OC4CC4)c3C(F)F)c(COC3CC3)c2)CCOCC1` [Compound 322], for which the IC50 by setting is: under setting [1], 5.9 nM; under setting [2], < 100 nM.

Take `CCOc1ccnc(-c2ccc(NC3(C(=O)O)CCOCC3)cc2COC2CC2)c1C(F)F` [Compound 323]: the IC50 under setting [1] stood at 833 nM and the IC50 under setting [2] lay in the range of 100 to 1000 nM.

With `CCOc1cc(OC)cc(-c2ccc(NC3(C(=O)O)CCOCC3)cc2COC2CC2)n1` [Compound 324], the IC50 under setting [1] was > 10000 nM and the IC50 under setting [2] is > 1000 nM.
